From patent US11780893B2, “Kv1.3 blockers” (Zealand Pharma A/S, priority 2019, dated 2023)
Bridge positions count the residues as written; N and C are the ends. Square brackets hold non-standard residues; d marks the D form. Peptide text beside a SMILES is read from it. Nle = CCCC[C@H](N)C(=O)O

Molecular target: T1, human Kv1.3 voltage-gated K+ channel (Homo sapiens, UniProt P22001)
T1 construct: host or cells: CHO-DUKX
Test: cell-based
Settings: inhibition of thallium flux, CHO-DUKX cells with human Kv1.3; read-out: IC50

T1 sequence (P22001 whole entry): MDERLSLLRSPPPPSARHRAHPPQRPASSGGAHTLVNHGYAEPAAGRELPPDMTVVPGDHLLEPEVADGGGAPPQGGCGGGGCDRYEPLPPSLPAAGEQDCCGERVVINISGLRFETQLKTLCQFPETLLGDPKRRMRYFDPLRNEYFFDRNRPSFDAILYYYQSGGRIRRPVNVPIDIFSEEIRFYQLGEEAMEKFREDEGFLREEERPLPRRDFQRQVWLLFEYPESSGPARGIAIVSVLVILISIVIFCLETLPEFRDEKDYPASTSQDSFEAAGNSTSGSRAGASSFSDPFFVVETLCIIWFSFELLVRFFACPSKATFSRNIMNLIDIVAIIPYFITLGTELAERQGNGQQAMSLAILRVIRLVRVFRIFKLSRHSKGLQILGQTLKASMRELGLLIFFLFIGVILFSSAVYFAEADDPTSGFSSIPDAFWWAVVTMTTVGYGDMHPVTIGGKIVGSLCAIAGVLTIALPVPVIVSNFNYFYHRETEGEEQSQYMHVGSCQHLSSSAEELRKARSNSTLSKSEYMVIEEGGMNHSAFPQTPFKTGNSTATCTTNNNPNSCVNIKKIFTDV

Structure (SMILES) | IC50 [nM]
CC[C@H](C)[C@@H]1NC(=O)[C@H](C)NC(=O)[C@H](CCCCN)NC(=O)[C@H](CC(C)C)NC(=O)[C@@H]2CSSC[C@@H](C(=O)N[C@@H](Cc3ccc(O)cc3)C(=O)N3CCC[C@H]3C(=O)N[C@@H](CCCNC(=N)N)C(=O)O)NC(=O)[C@H](CCCCN)NC(=O)[C@@H]3CSSC[C@H](NC(=O)[C@H](CCC(=O)O)NC(=O)[C@H](C(C)C)NC(=O)[C@H](CO)NC(=O)[C@H](C)NC(=O)[C@H](CO)NC(=O)[C@@H](NC(=O)[C@H](CCCNC(=N)N)NC(=O)[C@H](CCSC)NC(=O)[C@H](CC(=O)O)NC(=O)[C@H](CCSC)NC(=O)[C@H](CC(N)=O)NC(=O)CNC(=O)[C@@H](N)CO)CSSC[C@H](NC(=O)[C@H](CCCCN)NC(=O)CNC(=O)[C@H](Cc4ccccc4)NC(=O)[C@H]([C@@H](C)CC)NC(=O)[C@H](CO)NC(=O)CNC1=O)C(=O)N[C@@H](CCSC)C(=O)N[C@@H](CC(N)=O)C(=O)N[C@@H](CCCCN)C(=O)N[C@@H](CCCCN)C(=O)N3)C(=O)N[C@@H](CCCCN)C(=O)N[C@@H](CCC(N)=O)C(=O)N[C@@H](CCCCN)C(=O)N2 [Compound 13] (H-SGNMDMRCSASVECKQKCLKAIGSIFGKCMNKKCKCYPR-OH; disulfide 8-29, 14-34, 18-36) | 0.26
CC[C@H](C)[C@@H]1NC(=O)[C@H](C)NC(=O)[C@H](CCCCN)NC(=O)[C@H](CC(C)C)NC(=O)[C@@H]2CSSC[C@@H](C(=O)N[C@@H](Cc3ccc(O)cc3)C(=O)N3CCC[C@H]3C(=O)N[C@@H](CCCNC(=N)N)C(=O)O)NC(=O)[C@H](CCCCN)NC(=O)[C@@H]3CSSC[C@H](NC(=O)[C@H](CCC(=O)O)NC(=O)[C@H](C(C)C)NC(=O)[C@H](CO)NC(=O)[C@H](C)NC(=O)[C@H](CO)NC(=O)[C@@H](NC(=O)[C@H](CCCNC(=N)N)NC(=O)[C@@H](NC(=O)[C@H](CC(=O)O)NC(=O)[C@H](CCSC)NC(=O)[C@@H](N)CC(N)=O)C(C)C)CSSC[C@H](NC(=O)[C@H](CCCCN)NC(=O)CNC(=O)[C@H](Cc4ccccc4)NC(=O)[C@H]([C@@H](C)CC)NC(=O)[C@H](CO)NC(=O)CNC1=O)C(=O)N[C@@H](CCSC)C(=O)N[C@@H](CC(N)=O)C(=O)N[C@@H](CCCCN)C(=O)N[C@@H](CCCCN)C(=O)N3)C(=O)N[C@@H](CCCCN)C(=O)N[C@@H](CCC(N)=O)C(=O)N[C@@H](CCCCN)C(=O)N2 [Compound 9] (H-NMDVRCSASVECKQKCLKAIGSIFGKCMNKKCKCYPR-OH; disulfide 6-27, 12-32, 16-34) | 0.53
CCCC[C@@H]1NC(=O)[C@@H]2CSSC[C@H](NC(C)=O)C(=O)N[C@@H](CO)C(=O)N[C@@H](C)C(=O)N[C@@H](CO)C(=O)N[C@@H](C(C)C)C(=O)N[C@@H](CCC(=O)O)C(=O)N[C@H]3CSSC[C@H](NC(=O)[C@H](CCCCN)NC(=O)[C@H](CCCCN)NC(=O)[C@H](CC(N)=O)NC1=O)C(=O)N[C@@H](CCCCN)C(=O)N[C@H](C(=O)N[C@@H](Cc1ccc(O)cc1)C(N)=O)CSSC[C@H](NC(=O)[C@H](CCCCN)NC(=O)[C@H](CCC(N)=O)NC(=O)[C@H](CCCCN)NC3=O)C(=O)N[C@@H](CC(C)C)C(=O)N[C@@H](CCCCN)C(=O)N[C@@H](C)C(=O)N[C@@H]([C@@H](C)CC)C(=O)NCC(=O)N[C@@H](CO)C(=O)N[C@@H]([C@@H](C)CC)C(=O)N[C@@H](Cc1ccccc1)C(=O)NCC(=O)N[C@@H](CCCCN)C(=O)N2 [Compound 112] (Ac-CSASVECKQKCLKAIGSIFGKC[Nle]NKKCKCY-NH2; disulfide 1-22, 7-27, 11-29) | 1.7
CC[C@H](C)[C@@H]1NC(=O)[C@H](C)NC(=O)[C@H](CCCCN)NC(=O)[C@H](CC(C)C)NC(=O)[C@@H]2CSSC[C@@H](C(=O)N[C@@H](Cc3ccc(O)cc3)C(=O)N3CCC[C@H]3C(=O)N[C@@H](CCCNC(=N)N)C(=O)O)NC(=O)[C@H](CCCCN)NC(=O)[C@@H]3CSSC[C@H](NC(=O)[C@H](CCC(=O)O)NC(=O)[C@H](C(C)C)NC(=O)[C@H](CO)NC(=O)[C@H](C)NC(=O)[C@H](CO)NC(=O)[C@@H](NC(=O)[C@H](CCCNC(=N)N)NC(=O)[C@H](CCSC)NC(=O)[C@H](CC(=O)O)NC(=O)[C@H](CCSC)NC(=O)[C@H](CC(N)=O)NC(=O)CNC(=O)CN)CSSC[C@H](NC(=O)[C@H](CCCCN)NC(=O)CNC(=O)[C@H](Cc4ccccc4)NC(=O)[C@H]([C@@H](C)CC)NC(=O)[C@H](CO)NC(=O)CNC1=O)C(=O)N[C@@H](CCSC)C(=O)N[C@@H](CC(N)=O)C(=O)N[C@@H](CCCCN)C(=O)N[C@@H](CCCCN)C(=O)N3)C(=O)N[C@@H](CCCCN)C(=O)N[C@@H](CCC(N)=O)C(=O)N[C@@H](CCCCN)C(=O)N2 [Compound 11] (H-GGNMDMRCSASVECKQKCLKAIGSIFGKCMNKKCKCYPR-OH; disulfide 8-29, 14-34, 18-36) | 0.3
CCCC[C@H](NC(=O)[C@@H]1CCCN1)C(=O)N[C@@H](CCC(=O)O)C(=O)N[C@@H](CCCC)C(=O)N[C@@H](CCCNC(=N)N)C(=O)N[C@H]1CSSC[C@@H]2NC(=O)[C@H](CCCCN)NC(=O)CNC(=O)[C@H](Cc3ccccc3)NC(=O)[C@H]([C@@H](C)CC)NC(=O)[C@H](CO)NC(=O)CNC(=O)[C@H]([C@@H](C)CC)NC(=O)[C@H](C)NC(=O)[C@H](C)NC(=O)[C@H](CC(C)C)NC(=O)[C@@H]3CSSC[C@@H](C(=O)N[C@@H](Cc4ccc(O)cc4)C(=O)N4CCC[C@H]4C(=O)N[C@@H](CCCNC(=N)N)C(=O)O)NC(=O)[C@H](CCCCN)NC(=O)[C@H](CSSC[C@H](NC(=O)[C@H](CCC(=O)O)NC(=O)[C@H](C(C)C)NC(=O)[C@H](CO)NC(=O)[C@H](C)NC(=O)[C@H](CO)NC1=O)C(=O)N[C@@H](CCCCN)C(=O)N[C@@H](CCC(N)=O)C(=O)N1CCC[C@H]1C(=O)N3)NC(=O)[C@H](CCCCN)NC(=O)[C@H](CCCCN)NC(=O)[C@H](CC(N)=O)NC(=O)[C@H](CCCC)NC2=O [Compound 141] (H-P[Nle]E[Nle]RCSASVECKQPCLAAIGSIFGKC[Nle]NKKCKCYPR-OH; disulfide 6-27, 12-32, 16-34) | 1.07
CC[C@H](C)[C@@H]1NC(=O)[C@H](C)NC(=O)[C@H](CCCCN)NC(=O)[C@H](CC(C)C)NC(=O)[C@@H]2CSSC[C@@H](C(=O)N[C@@H](Cc3ccc(O)cc3)C(=O)N3CCC[C@H]3C(=O)N[C@@H](CCCNC(=N)N)C(N)=O)NC(=O)[C@H](CCCCN)NC(=O)[C@@H]3CSSC[C@H](NC(=O)[C@H](CCC(=O)O)NC(=O)[C@H](C(C)C)NC(=O)[C@H](CO)NC(=O)[C@H](C)NC(=O)[C@H](CO)NC(=O)[C@@H](NC(=O)[C@H](CCCNC(=N)N)NC(=O)[C@H](CCSC)NC(=O)[C@H](CC(=O)O)NC(=O)[C@H](CCSC)NC(=O)[C@@H](N)CC(N)=O)CSSC[C@H](NC(=O)[C@H](CCCCN)NC(=O)CNC(=O)[C@H](Cc4ccccc4)NC(=O)[C@H]([C@@H](C)CC)NC(=O)[C@H](CO)NC(=O)CNC1=O)C(=O)N[C@@H](CCSC)C(=O)N[C@@H](CC(N)=O)C(=O)N[C@@H](CCCCN)C(=O)N[C@@H](CCCCN)C(=O)N3)C(=O)N[C@@H](CCCCN)C(=O)N[C@@H](CCC(N)=O)C(=O)N[C@@H](CCCCN)C(=O)N2 [Compound 7] (H-NMDMRCSASVECKQKCLKAIGSIFGKCMNKKCKCYPR-NH2; disulfide 6-27, 12-32, 16-34) | 0.12
CCCC[C@H](NC(=O)[C@H](CC(=O)O)NC(=O)[C@H](CCCC)NC(=O)[C@@H](N)CO)C(=O)N[C@@H](CCCNC(=N)N)C(=O)N[C@H]1CSSC[C@@H]2NC(=O)[C@H](CCCCN)NC(=O)CNC(=O)[C@H](Cc3ccccc3)NC(=O)[C@H]([C@@H](C)CC)NC(=O)[C@H](CO)NC(=O)CNC(=O)[C@H]([C@@H](C)CC)NC(=O)[C@H](C)NC(=O)[C@H](C)NC(=O)[C@H](CC(C)C)NC(=O)[C@@H]3CSSC[C@@H](C(=O)N[C@@H](Cc4ccc(O)cc4)C(=O)N4CCC[C@H]4C(=O)N[C@@H](CCCNC(=N)N)C(N)=O)NC(=O)[C@H](CCCCN)NC(=O)[C@H](CSSC[C@H](NC(=O)[C@H](CCC(=O)O)NC(=O)[C@H](C(C)C)NC(=O)[C@H](CO)NC(=O)[C@H](C)NC(=O)[C@H](CO)NC1=O)C(=O)N[C@@H](C)C(=O)N[C@@H](CCC(N)=O)C(=O)N[C@@H](CC(C)C)C(=O)N3)NC(=O)[C@H](CCCCN)NC(=O)[C@H](CCCCN)NC(=O)[C@H](CC(N)=O)NC(=O)[C@H](CCSC)NC2=O [Compound 81] (H-S[Nle]D[Nle]RCSASVECAQLCLAAIGSIFGKCMNKKCKCYPR-NH2; disulfide 6-27, 12-32, 16-34) | 0.22
CCCC[C@H](NC(=O)[C@@H]1CCCN1)C(=O)N[C@@H](CCC(=O)O)C(=O)N[C@@H](CCCC)C(=O)N[C@@H](CCCNC(=N)N)C(=O)N[C@H]1CSSC[C@@H]2NC(=O)[C@H](CCCCN)NC(=O)CNC(=O)[C@H](Cc3ccccc3)NC(=O)[C@H]([C@@H](C)CC)NC(=O)[C@H](CO)NC(=O)CNC(=O)[C@H]([C@@H](C)CC)NC(=O)[C@H](C)NC(=O)[C@H](C)NC(=O)[C@H](CC(C)C)NC(=O)[C@@H]3CSSC[C@@H](C(=O)N[C@@H](Cc4ccc(O)cc4)C(=O)N4CCC[C@H]4C(=O)N[C@@H](CCCNC(=N)N)C(=O)O)NC(=O)[C@H](CCCCN)NC(=O)[C@H](CSSC[C@H](NC(=O)[C@H](CCC(=O)O)NC(=O)[C@H](C(C)C)NC(=O)[C@H](Cc4ccccc4)NC(=O)[C@H](C)NC(=O)[C@H](CO)NC1=O)C(=O)N[C@@H](CCCCN)C(=O)N[C@@H](CCC(N)=O)C(=O)N[C@@H](CCCCN)C(=O)N3)NC(=O)[C@H](CCCCN)NC(=O)[C@H](CCCCN)NC(=O)[C@H](CC(N)=O)NC(=O)[C@H](CCCC)NC2=O [Compound 145] (H-P[Nle]E[Nle]RCSAFVECKQKCLAAIGSIFGKC[Nle]NKKCKCYPR-OH; disulfide 6-27, 12-32, 16-34) | 8.26
CC[C@H](C)[C@@H]1NC(=O)[C@H](C)NC(=O)[C@H](CCCCN)NC(=O)[C@H](CC(C)C)NC(=O)[C@@H]2CSSC[C@@H](C(=O)N[C@@H](Cc3ccc(O)cc3)C(=O)N3CCC[C@H]3C(=O)N[C@@H](CCCNC(=N)N)C(=O)O)NC(=O)[C@H](CCCCN)NC(=O)[C@@H]3CSSC[C@H](NC(=O)[C@H](CCC(=O)O)NC(=O)[C@H](C(C)C)NC(=O)[C@H](CO)NC(=O)[C@H](C)NC(=O)[C@H](CO)NC(=O)[C@@H](NC(=O)[C@H](CCCNC(=N)N)NC(=O)[C@H](CCSC)NC(=O)[C@@H](N)CC(=O)O)CSSC[C@H](NC(=O)[C@H](CCCCN)NC(=O)CNC(=O)[C@H](Cc4ccccc4)NC(=O)[C@H]([C@@H](C)CC)NC(=O)[C@H](CO)NC(=O)CNC1=O)C(=O)N[C@@H](CCSC)C(=O)N[C@@H](CC(N)=O)C(=O)N[C@@H](CCCCN)C(=O)N[C@@H](CCCCN)C(=O)N3)C(=O)N[C@@H](CCCCN)C(=O)N[C@@H](CCC(N)=O)C(=O)N[C@@H](CCCCN)C(=O)N2 [Compound 6] (H-DMRCSASVECKQKCLKAIGSIFGKCMNKKCKCYPR-OH; disulfide 4-25, 10-30, 14-32) | 0.34
